In patent US10317393B2, “Alkynyl sugar analogs for labeling and visualization of glycoconjugates in cells” (Academia Sinica, priority 2007, dated 2019):

What was measured:
Jurkat cells [1] = test: Flow cytometry of cell surface labeling after click with biotin azide probe 6 and fluorescein-conjugated streptavidin; assay type: cell-based, human
Procedure: In another exemplary implementation, a method for labeling fucosylated glycoconjugates at the cell surface is disclosed. In one aspect, Jurkat cells are grown in the presence of derivatized alkynyl Fuc 1. After treatment, cells are subjected to CuAAC (click chemistry) to couple biotinylated azido probe 6 with any alkynyl Fuc-bearing glycoconjugates, and stained with fluorescein-conjugated streptavidin.
Labeling alkynyl Fuc-bearing cell surface glycoconjugates is illustrated in FIGS. 1A, 1B, 1C and 1D. FIGS. 1A, 1B, 1C and 1D show analysis of cells tagged with Fuc analogs analyzed by monitoring fluorescence intensity with flow cytometry after labeling with a biotin azide probe 6 and staining cells with fluorescein-conjugated streptavidin. […] Without being bound by theory, incorporation of the derivatized Fuc analogs into fucosylated glycoconjugates likely occurs via the Fuc salvage pathway.
It is now disclosed in one exemplary implementation of the disclosure that treating cells with derivatized alkynyl ManNAc 4 results in derivatized alkyne-bearing sialyl glycoconjugates. In one aspect of the method, cells are treated with 4 at various concentrations for one to 3 days. Modified sugar analogs and probes used in this disclosure are shown in Scheme 1. Tagging of the cell surface glycoconjugates by derivatized alkynyl ManNAc is illustrated in FIGS. 2A, 2B, 2C and 2D. FIGS. 2A, 2B, 2C and 2D show analysis of cells labeled with ManNAc analogs analyzed by monitoring fluorescence intensity with flow cytometry after clicking on the biotin azide probe 6 and staining cells with fluorescein-conjugated streptavidin. […] Compared with the MFI of controls, there was significant labeling on cells treated with derivatized alkynyl ManNAc 4, even at concentrations as low as 3 micromolar (15-fold increase). […] The optimal concentration of 4 for tagging sialyl glycoconjugates falls between 25 and 50 micromolar.
(§1) Jurkat cells were cultivated (2×10^6/10 ml) in RPMI medium 1640 supplemented with 10% FCS and various concentrations of peracetylated alkynyl sugars 1, 2, or 4 or native sugars 3 or 5, for 1-3 days at 37° C. Cells were then harvested, washed with 0.1% FCS/PBS, and resuspended (10^6 cells) in 100 microliters of click reaction solution (0.1 mM biotin probe 6 or fluorogenic probe 7/0.1 mM Tris-thiazoleamine catalyst/0.1 mM CuSO4/0.5 mM sodium ascorbate, in PBS). The reaction was incubated at room temperature for 30 min, and then the cells were washed twice with 0.1% FCS/PBS. Cells treated with biotin probe 6 were subsequently stained with fluorescein-conjugated streptavidin (0.5 microgram per sample in 50 microliters of 1% FCS/PBS) for 30 min at 4° C., and washed three times with 1% FCS/PBS. Data were acquired by BD LSR II with FACSDiva software, and were analyzed by CellQuestPro software (BD Biosciences). Detection of fluorescent adduct with probe 7 was monitored with a 408 nm laser and a 440/40 bandpass filter for excitation and emission, respectively.

Jurkat cells [2] = test: Cell growth analysis after treatment with sugar analogs (cell numbers counted); assay type: cell-based, human; settings: for toxicity (growth rate): 3 days
Procedure: FIGS. 1A, 1B, 1C and 1D show analysis of cells labeled with Fuc analogs. […] Jurkat cells were grown in the presence of 200 micromolar each Fuc analog for 3 days before cell numbers were counted. The data represent the percentage of treated cells vs. untreated cells (n=4).
It is also disclosed how treatment with exogenous Fuc analog affects cell growth rate. […] In contrast, the addition of 200 micromolar azido Fuc 2 inhibits cell growth considerably, by 65% when compared with the untreated cells. […] Such toxicity may lead to global change in expression, therefore a nontoxic probe is preferable for accurate probing of glycoconjugate expression.
as §1

cell extracts = test: Labeling and detection of glycoconjugates in cell extracts (SDS/PAGE, Western blot); assay type: cell-based; settings: 200 micromolar Fuc or 25 micromolar ManNAc analogs, 3 days
From the text: Because the herein disclosed labeling system enables the identification of cellular glycoconjugates, it can also serve well in glyco-proteomic applications aimed at discovering unknown glycosylated targets for diagnostic and therapeutic purposes. […] Soluble lysate fractions are labeled with biotin probe 6, fluorogenic probe 7, or a standard azido-derivatized rhodamine probe used in proteomics before separating proteins by SDS/PAGE. […] Positive fluorescent signal was also detected in alkynyl positive protein lysate when labeled with fluorogenic 3-azido-7-hydroxycoumarin 7 and rhodamine probes (FIG. 6B and FIG. 11). […] Moreover, further processing, including a streptavidin/avidin enrichment or gel slice purification, will allow for comparative identification by proteomic mass spectrometry techniques of unknown glycoconjugates expressed at different cell status, for instance, un-differentiated verses differentiated cells, or normal verses cancer cells.
Cells were seeded at 3×10^6/8 ml per 10-cm dish and treated with control and test sugars (200 micromolar Fuc 3 vs. alkynyl derivatized Fuc 1, or 25 micromolar ManNAc 5 vs. alkynyl derivatized ManNAc 2) in growth medium at 37° C. […] Signal was developed with SuperSignal Chemiluminescent Substrate and detected by exposure to x-ray film. […] Rhodamine gels were analyzed.

Jurkat cells [3] = test: Flow cytometry of cell surface labeling with fluorogenic coumarin probe 7; assay type: cell-based, human; settings: 200 micromolar Fuc analogs or 25 micromolar ManNAc analogs, 3 days
From the text: FIGS. 3A and 3B show tagging of cell surface glycans by derivatized alkynyl sugar analogs and subsequent labeling with probe 3-azido-7-hydroxycoumarin 7. Shown is flow cytometry analysis of Jurkat cells tagged with 200 micromolar derivatized alkynyl Fuc 1 shown in FIG. 3A or 25 micromolar alkynyl-derivatized ManNAc 4 shown in FIG. 3B for 3 days. The fluorescence intensity was detected after labeling with a coumarin probe 7. Filled histogram, cells treated with control sugar analog 3 or 5; open histogram, cell treated with alkynyl-derivatized sugar 1 or 4.
Recently, another click-activated azido-derivatized fluorescent probe, based on coumarin, was reported in the literature. In one aspect of the disclosure, the fluorogenic probe, 3-azido-7-hydroxycoumarin 7, is used as the coupling partner for alkynyl tags on labeled glycoconjugates.
Jurkat cells were cultivated (2×10^6/10 ml) in RPMI medium 1640 supplemented with 10% FCS and various concentrations of peracetylated alkynyl sugars 1, 2, or 4 or native sugars 3 or 5, for 1-3 days at 37° C. […] Data were acquired by BD LSR II with FACSDiva software, and were analyzed by CellQuestPro software (BD Biosciences). Detection of fluorescent adduct with probe 7 was monitored with a 408 nm laser and a 440/40 bandpass filter for excitation and emission, respectively.

C#CCCC(=O)N[C@@H]1C(OC(C)=O)O[C@H](COC(C)=O)[C@@H](OC(C)=O)[C@@H]1OC(C)=O (some centres unmarked) [alkynyl ManNAc 4, 1,3,4,6-tetra-O-acetyl-N-4-pentynoylmannosamine]
increase of MFI compared with controls (Jurkat cells [1]; 3 micromolar): 15 fold
dose dependency of glycan tagging (Jurkat cells [1]; 3 days): Dose-dependent labeling
fluorescence intensity / cell surface signal compared with control sugar-treated cells (Jurkat cells [1]; biotin probe 6/fluorescein-streptavidin): specific signal on the cell surface
toxicity (growth rate) (Jurkat cells [2]; above 100 micromolar): more toxic
toxicity to cells (summary statement) (Jurkat cells [2]; at levels required for efficient labeling): not toxic
toxicity (growth rate) (Jurkat cells [2]; between 25 and 50 micromolar): little or no toxicity
labeling signal in proteins by Western blot or fluorescence (cell extracts): specific biotin-labeling signals
fluorescent labeling after reacting with 3-azido-7-hydroxycoumarin probe (Jurkat cells [3]): significant fluorescent labeling
